Measurements: ChEMBL document CHEMBL4219142, “Discovery of potent DOT1L inhibitors by AlphaLISA based High Throughput Screening assay” (Bioorg Med Chem, 2018)

Assays:
[1] = molecular target: T1, Histone-lysine N-methyltransferase, H3 lysine-79 specific (Homo sapiens, UniProt Q8TEK3); test: (§1) Inhibition of recombinant human His6-SUMO tagged DOT1L (1 to 416 residues) expressed in Escherichia coli BL21(DE3) at 25 uM using oligonucleosome as substrate pretreated for 15 mins followed by substrate addition measured after 60 mins in presence of [3H]SAM by liquid scintillation counting method relative to control
Target sequence in this assay (Q8TEK3 whole entry, looked up, the tested form may be a part): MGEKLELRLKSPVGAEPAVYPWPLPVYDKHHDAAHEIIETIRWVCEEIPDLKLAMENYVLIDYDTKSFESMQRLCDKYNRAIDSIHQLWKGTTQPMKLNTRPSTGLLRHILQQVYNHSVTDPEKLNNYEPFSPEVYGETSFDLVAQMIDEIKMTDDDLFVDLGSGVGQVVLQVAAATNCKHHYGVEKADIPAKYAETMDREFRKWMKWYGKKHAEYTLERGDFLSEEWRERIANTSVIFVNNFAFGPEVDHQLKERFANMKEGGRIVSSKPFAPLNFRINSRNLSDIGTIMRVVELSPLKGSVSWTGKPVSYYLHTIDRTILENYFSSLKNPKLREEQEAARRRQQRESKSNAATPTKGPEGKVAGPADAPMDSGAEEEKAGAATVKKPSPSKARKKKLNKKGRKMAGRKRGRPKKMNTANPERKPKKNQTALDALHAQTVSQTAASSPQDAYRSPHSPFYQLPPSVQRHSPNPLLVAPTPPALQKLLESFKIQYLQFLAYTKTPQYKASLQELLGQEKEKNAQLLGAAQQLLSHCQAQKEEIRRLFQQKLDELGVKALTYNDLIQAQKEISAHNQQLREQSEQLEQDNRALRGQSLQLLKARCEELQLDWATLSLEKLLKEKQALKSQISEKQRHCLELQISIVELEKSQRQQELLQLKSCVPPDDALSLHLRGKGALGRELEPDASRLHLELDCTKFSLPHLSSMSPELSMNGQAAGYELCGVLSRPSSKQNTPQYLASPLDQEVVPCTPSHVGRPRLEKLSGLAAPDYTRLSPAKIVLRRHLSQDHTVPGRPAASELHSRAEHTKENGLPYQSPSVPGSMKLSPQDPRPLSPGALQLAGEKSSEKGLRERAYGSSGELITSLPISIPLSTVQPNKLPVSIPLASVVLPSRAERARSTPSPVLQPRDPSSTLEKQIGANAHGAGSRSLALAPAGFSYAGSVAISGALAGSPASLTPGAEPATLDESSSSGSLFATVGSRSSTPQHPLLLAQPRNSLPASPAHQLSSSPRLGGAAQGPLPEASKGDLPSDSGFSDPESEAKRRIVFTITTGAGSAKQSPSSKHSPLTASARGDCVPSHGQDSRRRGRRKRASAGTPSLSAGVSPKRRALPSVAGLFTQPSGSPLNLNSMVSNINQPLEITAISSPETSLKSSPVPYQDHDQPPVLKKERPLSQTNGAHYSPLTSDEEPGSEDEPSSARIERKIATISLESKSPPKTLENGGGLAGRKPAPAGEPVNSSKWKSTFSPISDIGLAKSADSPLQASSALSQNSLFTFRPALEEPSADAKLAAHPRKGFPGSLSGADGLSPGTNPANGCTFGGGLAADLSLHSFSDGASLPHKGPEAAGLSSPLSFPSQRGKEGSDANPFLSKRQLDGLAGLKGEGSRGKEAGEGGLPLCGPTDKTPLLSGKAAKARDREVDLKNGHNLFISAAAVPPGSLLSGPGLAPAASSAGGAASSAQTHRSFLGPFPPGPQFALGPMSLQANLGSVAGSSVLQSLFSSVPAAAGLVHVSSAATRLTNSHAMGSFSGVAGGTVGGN

[2] = molecular target: T1, Histone-lysine N-methyltransferase, H3 lysine-79 specific; test: as §1, with “50” for “25”
Target sequence in this assay (Q8TEK3 whole entry, looked up, the tested form may be a part): as above

[3] = molecular target: T1, Histone-lysine N-methyltransferase, H3 lysine-79 specific; test: as §1, with “100” for “25”
Target sequence in this assay (Q8TEK3 whole entry, looked up, the tested form may be a part): as above

[4] = molecular target: T1, Histone-lysine N-methyltransferase, H3 lysine-79 specific; test: Inhibition of recombinant human His6-SUMO tagged DOT1L (1 to 416 residues) expressed in Escherichia coli BL21(DE3) using oligonucleosome as substrate pretreated for 15 mins followed by substrate addition measured after 60 mins in presence of [3H]SAM by liquid scintillation counting method
Target sequence in this assay (Q8TEK3 whole entry, the tested form may be a part): as the sequence (Q8TEK3 whole entry, looked up, the tested form may be a part) above

[5] = molecular target: T1, Histone-lysine N-methyltransferase, H3 lysine-79 specific; test: Binding affinity to recombinant human His6-SUMO tagged DOT1L (1 to 416 residues) expressed in Escherichia coli BL21(DE3) by surface plasmon resonance method
Target sequence in this assay (Q8TEK3 whole entry, the tested form may be a part): as the sequence (Q8TEK3 whole entry, looked up, the tested form may be a part) above

MV4-11 = test: Antiproliferative activity against human MV411 cells after 72 hrs by Alamar blue assay; assay type: functional, cell-based; conditions: MV4-11, 72 h
[6] = molecular target: T1, Histone-lysine N-methyltransferase, H3 lysine-79 specific; test: Inhibition of recombinant human His6-SUMO tagged DOT1L (1 to 416 residues) expressed in Escherichia coli BL21(DE3) using oligonucleosome as substrate measured after 30 mins in presence of SAM by AlphaLISA assay
Target sequence in this assay (Q8TEK3 whole entry, the tested form may be a part): as the sequence (Q8TEK3 whole entry, looked up, the tested form may be a part) above

Row | Compound | inhibition [1] [%] | inhibition [2] [%] | inhibition [3] [%] | IC50 [4] [µM] | Kd [5] [µM] | IC50 (MV4-11) [µM] | IC50 [6] [µM]
1 | C(=C\c1nn2c(N3CCOCC3)nnc2s1)/c1ccco1 | 45 | 55 | 65 |  |  |  | 
2 | COc1cccc(-c2nnc3sc(/C=C/c4ccco4)nn23)c1 | 48.5 | 51 | 59 |  |  |  | 
3 | c1ccc2c(Cc3nn4c(-c5ccoc5)nnc4s3)cccc2c1 | 43 | 59 | 77 |  |  |  | 
4 | C(=C\c1nn2c(C3CCCCC3)nnc2s1)/c1ccco1 | 40.2 | 68 | 72 |  |  |  | 
5 | COc1cc(-c2nnc3sc(/C=C/c4ccco4)nn23)cc(OC)c1OC | 48.1 | 53 | 60 |  |  |  | 
6 | Fc1ccc(-c2nnc3sc(/C=C/c4ccco4)nn23)cc1 |  | 44 | 40 |  |  |  | 
7 | C(=C\c1nn2c(-c3ccncc3)nnc2s1)/c1ccco1 | 54 | 67 | 82 | 13.7 | 7.4 | 66.5 | 

Other lines, results leading:

Row | inhibition [1] [%] | inhibition [2] [%] | inhibition [3] [%] | IC50 [4] [µM] | Kd [5] [µM] | IC50 (MV4-11) [µM] | IC50 [6] [µM] | Compound
8 |  | 22 | 29 |  |  |  |  | Fc1cccc(-c2nnc3sc(/C=C/c4ccco4)nn23)c1
9 |  | 17 | 41 |  |  |  |  | Cc1occc1-c1nnc2sc(CCCc3ccccc3)nn12
10 | 79.4 | 79 | 81 | 7.01 | 4.78 to 4.87 | 64.7 |  | C(=C\c1nn2c(-c3ccccc3)nnc2s1)/c1ccco1
11 | 38.5 | 53 | 53 |  |  |  |  | COc1ccccc1/C=C/c1nn2c(-c3ccc(N(C)C)cc3)nnc2s1
12 |  | 11 | 27 |  |  |  |  | Cc1occc1-c1nnc2sc(CCc3ccccc3)nn12
13 |  |  |  |  |  |  | 33.7 | Nc1ncnc2c1ncn2[C@@H]1O[C@H](C[C@@H](N)CC[C@H](N)C(=O)O)[C@@H](O)[C@H]1O [SINEFUNGIN]
14 | 9 | 71 | 88 |  |  |  |  | C(=C\c1nn2c(-c3cc4ccccc4o3)nnc2s1)/c1ccco1
15 |  | 43 | 50 |  |  |  |  | Fc1cccc(-c2nnc3sc(CCc4ccccc4)nn23)c1
16 | 66.6 | 69 | 74 | 9.41 | 1.21 | 124 |  | Cc1cccc(-c2nnc3sc(/C=C/c4ccco4)nn23)c1
17 |  | 13 | 24 |  |  |  |  | Cc1occc1-c1nnc2sc(Cc3ccccc3)nn12
